Laboratory results: US9279107B2, “Simplified basic media for human pluripotent cell culture” (WISCONSIN ALUMNI RESEARCH FOUNDATION, priority 2010, dated 2016)

Columns and labels:
Type in all cases: cell-based, human
H1 cells [1] = assay: NANOG mRNA expression; settings: added to DF5S; NODAL 100 ng/ml or TGF-β 2 ng/ml; compared to DF5S
From the text: DF5S was used to expand H1 cells. Cells grown in DF5S were more prone to differentiate than cells grown in TeSR™. However, H1 cells could be grown for several weeks (more than 15 passages), during which the cells maintained human ES cell morphology and high levels of OCT4 expression (FIG. 1E, FIG. 1F). […] DF5S+NODAL also supported pluripotency of the two tested human iPS cell lines, as determined by high expression of the pluripotency marker OCT4. All cells (hES cells and iPS cells) grown in DF5S with either NODAL or TGF-β maintained a normal karyotype after long-term passage.

foreskin cells = assay: Reprogramming of foreskin fibroblasts to iPS cells; settings: foreskin fibroblasts
Procedure: Available reprogramming protocols include incubation of the cells in FBS in the first several days after viral transduction or electroporation, prior to switching the cells to UM100 (U.S. Pat. No. 7,439,064, incorporated herein as if set forth in its entirety) or CM. The simplified media described in previous Examples were tested for their ability to support reprogramming.
To determine if DF5S-based media can be used for viral-free iPS cell derivation, foreskin cells were reprogrammed using a viral-free episomal vector, as described in Yu et al., Science 324:797 (2009), incorporated herein by reference as if set forth in its entirety, at hypoxic conditions (O5C10).
Plasmid combinations #6 and #19 were used for the reprogramming. In order to enhance the plasmid entry into the nucleus, ENBA mRNA was electroporated along with plasmid DNA. Around one million cells were transferred onto two 6-well plates in DF5SFeC for 5 days. Medium was then switched to DF5SFe for another 18-25 days. Cells of some of the wells were passaged for a second time using a 1:6 ratio at different time points.

iPS cells = assay: Long-term pluripotency of lentiviral iPS cell lines; settings: added to DF5SFe; TGF-β 2 ng/ml or NODAL 100 ng/ml
From the text: Human ES cell lines, such as H1 and H9 have a culture history that includes exposure to various complex culture components, such as FBS, feeder cells, and knockout serum replacer. Exposure to these components could conceivably create dependency on these components and, consequently, alter cellular response to simplified media. Culture history might play a lesser role for iPS cells, derived from reprogrammed somatic cells, as derivation conditions are less complex. Therefore, different factors were tested with two original lentiviral iPS cell lines (Yu, et al., Science 318:1917 (2007)) grown in DF5SFe. Cells were transferred from MEF plates directly into DF5SFe medium for one passage and then passaged into various growth factor conditions. […] Pluripotency surface markers SSEA4, SSEA3, Tra-1-60, and Tra-1-81 were also expressed. Cells with normal karyotypes were continuously maintained for more than 20 passages. The cells were capable of forming teratomas 5-7 weeks after injection into severe combined immunodeficient (SCID) mice.

H1 cells [2] = assay: Oct4 expression by flow cytometry as indicator of pluripotency
Procedure: As described in Example 3, human pluripotent cells, such as H1, H9, and iPS cells, could be grown and passaged over 15 times in DF5S but were prone to differentiate, such that extra care is needed to sustain pluripotency in DF5S. Because pluripotency could be maintained more easily in TeSR™, growth factors present in TeSR™ were added individually to DF5SFe used to grow H1 cells that were previously cultured in DF5S without differentiating to identify factors supporting long-term pluripotency. Cells were passaged approximately one day after reaching confluency, facilitating cell differentiation, and Oct4 expression, assessed by flow cytometry, was used as indicator of pluripotency.
Human pluripotent cells grown in DF5SFe elongated and lined up along each other, resembling a “spindle” shape just prior to differentiation. […] Thus, recombinant proteins of the TGF-β pathway were tested for their ability to support long-term pluripotency.

[3] = test system: patient cell lines OAT, PRPF8-2, GRC M1-29; assay: Reprogramming of adult donor cell lines with episomal vectors; settings: TGF-β added to the reprogramming media

transforming growth factor beta [TGF-β] was tested, and the “NANOG mRNA level” value (H1 cells [1]) was “significantly higher levels of NANOG mRNA”, the “number of colonies during reprogramming” value (foreskin cells) was “increased numbers of colonies” and the “number of true iPS cell colonies” value (foreskin cells; TGF-β addition) was “remained low”. The long-term pluripotency (iPS cells) was “supported long-term pluripotency of iPS cells”, the Oct4 expression (H1 cells [2]; DF5SFe supplemented with TGF-β at TeSR concentration (0.6 ng/ml)) was “low levels of Oct4 expression” and the Oct4 expression (H1 cells [2]; DF5SFe supplemented with TGF-β at higher concentration (1 ng/ml)) was “maintain high Oct4 expression”. For the same substance, the “number of iPS clones” value [3] was “not increased significantly” and the “total number of colonies” value [3] was “increased significantly”.
